Measured values taken from US11014896B2, “TRPA1 and TRPV4 inhibitors and methods of using the same for organ-specific inflammation and itch” (Duke University, priority 2014, dated 2021).
Entries after “also recorded” stand apart in the source; their conditions may differ.

Tests used:
human TRPV3 = target: T1, human TRPV3 (Homo sapiens, UniProt Q8NET8); assay: Ca2+ signal in N2a cells transfected with human TRPV3; type: cell-based; conditions: stimulation with camphor
T1 construct: expressed in transfected cells; host or cells: N2a cells
T1 sequence (Q8NET8 1-790): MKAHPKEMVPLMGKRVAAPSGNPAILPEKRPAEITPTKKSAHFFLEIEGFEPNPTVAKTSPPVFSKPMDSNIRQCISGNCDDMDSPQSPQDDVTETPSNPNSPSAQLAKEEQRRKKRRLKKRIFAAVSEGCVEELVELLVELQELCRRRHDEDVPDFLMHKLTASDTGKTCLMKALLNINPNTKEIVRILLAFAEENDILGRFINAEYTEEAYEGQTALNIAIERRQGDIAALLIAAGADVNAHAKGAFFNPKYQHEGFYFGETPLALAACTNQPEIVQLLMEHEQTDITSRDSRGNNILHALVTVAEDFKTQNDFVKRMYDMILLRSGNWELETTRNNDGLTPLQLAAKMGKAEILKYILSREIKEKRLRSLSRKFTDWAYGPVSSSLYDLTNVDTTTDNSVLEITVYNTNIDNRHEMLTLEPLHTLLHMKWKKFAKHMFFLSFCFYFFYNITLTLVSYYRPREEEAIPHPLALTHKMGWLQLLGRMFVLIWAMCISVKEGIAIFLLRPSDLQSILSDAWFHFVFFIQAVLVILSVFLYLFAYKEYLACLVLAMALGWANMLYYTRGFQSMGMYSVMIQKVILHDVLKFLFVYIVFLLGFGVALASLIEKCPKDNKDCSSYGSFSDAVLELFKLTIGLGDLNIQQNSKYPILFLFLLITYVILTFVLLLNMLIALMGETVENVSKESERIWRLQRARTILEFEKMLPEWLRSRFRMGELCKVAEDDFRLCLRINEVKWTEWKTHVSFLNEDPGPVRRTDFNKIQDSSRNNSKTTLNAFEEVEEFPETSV
Protocol: (§1) Compounds were tested for their effect on TRPV1, TRPV2, and TRPV3. Methods were similar to those described in Example 15. Briefly, N2a cells were transfected with human TRPV1, TRPV2, or TRPV3. eGFP-transfection was used as control. For specific stimulation of TRPV1, 5 μM capsaicin was used. For stimulation of TRPV2, hypotonicity (260 mosmol/L) was used, based on previous reports of TRPV2 being osmotically responsive. N2a cells were not responsive to hypotonicity, and neither were control-transfected cells. For TRPV3-expressing cells, camphor (20% of a commercially available stock solution) was used. […] Stimulation and control protocols were applied as for TRPA1-expressing N2a cells as detailed above in Example 15.

human TRPV1 = target: T2, human TRPV1 (Homo sapiens, UniProt Q8NER1); assay: Ca2+ signal in N2a cells transfected with human TRPV1; type: cell-based; conditions: stimulation with 5 μM capsaicin
T2 construct: expressed in transfected cells; host or cells: N2a cells
T2 sequence (Q8NER1 whole entry): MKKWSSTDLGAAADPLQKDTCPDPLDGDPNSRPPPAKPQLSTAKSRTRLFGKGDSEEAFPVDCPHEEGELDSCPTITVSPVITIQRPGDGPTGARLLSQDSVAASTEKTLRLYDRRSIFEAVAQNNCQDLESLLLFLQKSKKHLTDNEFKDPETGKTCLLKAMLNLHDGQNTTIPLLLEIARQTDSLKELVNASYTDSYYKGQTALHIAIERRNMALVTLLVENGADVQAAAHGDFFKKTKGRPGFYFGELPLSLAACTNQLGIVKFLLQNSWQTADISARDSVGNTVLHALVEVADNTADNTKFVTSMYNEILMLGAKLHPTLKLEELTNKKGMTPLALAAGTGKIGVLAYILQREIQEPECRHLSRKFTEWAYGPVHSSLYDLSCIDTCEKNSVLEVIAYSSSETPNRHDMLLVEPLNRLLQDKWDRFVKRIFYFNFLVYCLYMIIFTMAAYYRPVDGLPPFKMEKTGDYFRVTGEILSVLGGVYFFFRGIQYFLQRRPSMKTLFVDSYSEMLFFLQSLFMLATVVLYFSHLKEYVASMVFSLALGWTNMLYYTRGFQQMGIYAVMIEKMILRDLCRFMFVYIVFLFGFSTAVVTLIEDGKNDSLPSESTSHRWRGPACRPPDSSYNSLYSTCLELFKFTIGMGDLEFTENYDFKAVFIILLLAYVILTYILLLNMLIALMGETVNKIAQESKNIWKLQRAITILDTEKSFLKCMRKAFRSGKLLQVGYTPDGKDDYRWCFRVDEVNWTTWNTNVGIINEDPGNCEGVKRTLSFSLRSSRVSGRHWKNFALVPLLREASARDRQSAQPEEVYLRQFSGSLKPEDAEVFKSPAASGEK
Protocol: as §1

[1] = Histopathology of UVB-photodermatitis in topically treated paw-pad skin; type: in vivo, mouse; conditions: 5 mM GSK205 topical
Protocol: (§2) GSK205 topical treatment: A viscous solution of 68% EtOH/5% glycerol plus 1 mM or 5 mM GSK205 (none for control) was applied to hindpaws by rubbing in 20 μL, applied at time-points 1 hour and again 10 min before UV exposure.

TRPV4 = TRPV4 (Homo sapiens, UniProt Q9HBA0); assay: UVB-evoked Ca++ transient in TRPV4-transfected HEK293T cells; type: cell-based; parameters: expressed in transfected cells; host or cells: HEK293T cells; conditions: pre-exposure to 20 μM GSK205
Chain of TRPV4 (Q9HBA0 whole entry, species assumed): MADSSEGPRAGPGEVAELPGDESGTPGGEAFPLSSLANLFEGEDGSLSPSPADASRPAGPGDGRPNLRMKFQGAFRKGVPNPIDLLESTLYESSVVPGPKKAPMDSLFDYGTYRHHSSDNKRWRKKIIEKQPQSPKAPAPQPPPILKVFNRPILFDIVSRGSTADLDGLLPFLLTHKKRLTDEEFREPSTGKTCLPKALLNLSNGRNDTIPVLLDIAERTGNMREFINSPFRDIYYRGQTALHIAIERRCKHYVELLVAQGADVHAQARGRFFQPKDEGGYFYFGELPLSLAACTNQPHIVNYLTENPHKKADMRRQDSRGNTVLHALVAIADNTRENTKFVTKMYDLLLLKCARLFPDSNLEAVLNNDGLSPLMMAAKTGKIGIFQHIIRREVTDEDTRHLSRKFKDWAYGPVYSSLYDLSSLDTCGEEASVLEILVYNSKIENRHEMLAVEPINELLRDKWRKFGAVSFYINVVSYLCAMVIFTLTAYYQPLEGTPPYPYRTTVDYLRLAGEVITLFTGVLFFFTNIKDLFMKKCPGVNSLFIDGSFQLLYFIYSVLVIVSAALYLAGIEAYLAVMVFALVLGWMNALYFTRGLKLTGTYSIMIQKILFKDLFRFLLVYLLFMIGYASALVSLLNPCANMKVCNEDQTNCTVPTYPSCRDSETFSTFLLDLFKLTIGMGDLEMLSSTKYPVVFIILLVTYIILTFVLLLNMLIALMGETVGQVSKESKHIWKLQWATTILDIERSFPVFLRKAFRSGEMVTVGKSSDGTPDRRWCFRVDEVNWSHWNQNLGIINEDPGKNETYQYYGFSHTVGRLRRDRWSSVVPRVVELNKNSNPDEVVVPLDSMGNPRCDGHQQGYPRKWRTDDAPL

ET1 = ET1 secretion by non-stimulated 1° MK (ELISA); type: cell-based, mouse
IL-1β [2] = assay: IL-1β secretion by UVB-exposed 1° MK (ELISA); type: cell-based, mouse; conditions: 5 μM GSK205
Protocol: Before UV irradiation, culture media was replaced with PBS. The cells were then irradiated at a dose of 50 mJ/cm^2 with UVB. 24 hours later, supernatants were assayed using IL-1β ELISA (R&D Systems, Minneapolis, Minn.).

IL-1β [3] = assay: Keratinocyte IL-1β expression in UVB-exposed footpad after topical treatment; type: in vivo, mouse; conditions: 5 mM GSK205 topical
Protocol: as §2
Routine procedures were followed as described previously (Chen et al., 2009). Mice were perfused transcardially with 30 mL PBS, followed by 30 mL 4% paraformaldehyde. Tissues, including the L5 DRGs (bilateral), and footpad preparations, were dissected and post-fixed in 4% paraformaldehyde. Tissue blocks were further cryoprotected in 30% sucrose in PBS for 24-48 hours. For mouse TRPV4, keratin-specific antibodies, phospho-ERK, IL-6, IL-1β, CXCL5 and caspase-1, tissue was prepared as frozen blocks and subsequently sectioned on a cryostat. For CD68, CD15 (neutrophil elastase) and CD3, mouse skin was prepared by 2% PFA perfusion. […]

Row | Compound | Ca2+ transience on TRPV3 stimulation (human TRPV3) | Ca2+ transience on TRPV1 stimulation (human TRPV1) | UVB-photodermatitis histopathology (inflammation) [1] | UVB-evoked Ca++ signal in TRPV4-transfected HEK293T cells (TRPV4) | ET1 secretion into supernatant (relative ET1 concentration) (ET1) | UVB-induced increase in IL-1β secretion (IL-1β [2]) | keratinocyte expression of IL-1β in UVB-exposed footpad (IL-1β [3])
1 | CN(CCc1ccc(Nc2nc(-c3ccccc3)cs2)cc1)Cc1ccccc1 [Compound 16-8] | not affected | not affected |  |  |  |  | 
2 | CN(CCc1ccc(Nc2nc(-c3cccnc3)cs2)cc1)Cc1ccccc1 [GSK205] |  |  | virtual elimination of inflammation; also recorded: markedly reduced inflammatory infiltrate | blocked; also recorded: virtually eliminates | significant down-regulation | completely eliminated; also recorded: prevention of increase in IL-1β secretion | failed to upregulate; also recorded: attenuates keratinocyte expression of IL-1β
